In patent US6992079B2, “Substituted 11-phenyl-dibenzazepine compounds useful for the treatment or prevention of diseases characterized by abnormal cell proliferation” (President Fellows of Harvard College, priority 1997, dated 2006):
Read-outs that look alike come from different tables or passages of the source.

What was measured:
A549 = experiment: SRB antiproliferative assay; assay type: cell-based; details: Homo sapiens, A549, A549 (Lung), 5% FCS/5 day incubation
Excerpt: (§1) The cells were passaged using Trypsin (Gibco).

HEPG2 = experiment: SRB antiproliferative assay; assay type: cell-based; details: Homo sapiens, HepG2, HEPG2 (Hepatocel), 5% FCS/5 day incubation
Excerpt: as §1

HT29 [1] = experiment: SRB antiproliferative assay; assay type: cell-based; details: Homo sapiens, HT-29, HT29 (Colon), 5% FCS/5 day incubation
Excerpt: as §1

HeLa = experiment: SRB antiproliferative assay; assay type: cell-based; details: Homo sapiens, HeLa (Cervical), 5% FCS/5 day incubation
Excerpt: as §1

MCF7 = experiment: SRB antiproliferative assay; assay type: cell-based; details: Homo sapiens, MCF7, MCF7 (Breast), 5% FCS/5 day incubation
Excerpt: as §1

U118MG = experiment: SRB antiproliferative assay; assay type: cell-based; details: Homo sapiens, U-118-MG, U118MG (CNS), 5% FCS/5 day incubation
Excerpt: as §1

K-562 = experiment: In-Vitro Testing SRB panel: Leukemia; assay type: cell-based
ROP-92 = assay type: cell-based
NCI-H226 = assay type: cell-based
COLO 205 = experiment: In-Vitro Testing SRB panel: Colon Cancer; assay type: cell-based
HT29 [2] = experiment: In-Vitro Testing SRB panel: Colon Cancer; assay type: cell-based
SW-620 = experiment: In-Vitro Testing SRB panel: Colon Cancer; assay type: cell-based
SF-539 = experiment: In-Vitro Testing SRB panel: CNS Cancer; assay type: cell-based
SNB-19 = experiment: In-Vitro Testing SRB panel: CNS Cancer; assay type: cell-based
U251 = experiment: In-Vitro Testing SRB panel: CNS Cancer; assay type: cell-based
SN12C = experiment: In-Vitro Testing SRB panel: Renal Cancer; assay type: cell-based
NCI/ADR-RES = experiment: In-Vitro Testing SRB panel: Breast Cancer; assay type: cell-based
MDA-N = experiment: In-Vitro Testing SRB panel: Breast Cancer; assay type: cell-based
OVCAR-3 = experiment: In-Vitro Testing SRB panel: Ovarian Cancer
[3] = Homo sapiens, read-out: LC50 (the source's name)

## COc1ccc2c(c1)CN(C(=O)c1ccc([N+](=O)[O-])cc1)c1ccc(Cl)cc1C2c1ccccc1Cl (stereo not shown) [Compound 30]
A549
  IC50: 1.5 µM
HEPG2
  IC50: 0.9 µM
HT29 [1]
  IC50: 0.6 µM
HeLa
  IC50: 0.5 µM
MCF7
  IC50: 1.3 µM
U118MG
  IC50: 0.8 µM
K-562; Homo sapiens, K562
  GI50: 1.33 µM
K-562; Homo sapiens, K562, K-562, read-out: LC50 (the source's name)
  CC50: > 100 µM
K-562; K-562
  TGI: >1.00E−04 Molar
K-562; K-562, Log10 concentration −4.0 Molar
  Percent Growth: 17%
K-562; K-562, Log10 concentration −5.0 Molar
  Percent Growth: 24%
K-562; K-562, Log10 concentration −6.0 Molar
  Percent Growth: 54%
K-562; K-562, Log10 concentration −7.0 Molar
  Percent Growth: 86%
K-562; K-562, Log10 concentration −8.0 Molar
  Percent Growth: 99%
ROP-92; Homo sapiens
  GI50: > 100 µM
ROP-92; Homo sapiens, ROP-92, read-out: LC50 (the source's name)
  CC50: > 100 µM
ROP-92; ROP-92
  TGI: >1.00E−04 Molar
ROP-92; ROP-92, Log10 concentration −4.0 Molar
  Percent Growth: 58%
ROP-92; ROP-92, Log10 concentration −5.0 Molar
  Percent Growth: 69%
ROP-92; ROP-92, Log10 concentration −6.0 Molar
  Percent Growth: 93%
ROP-92; ROP-92, Log10 concentration −7.0 Molar
  Percent Growth: 102%
ROP-92; ROP-92, Log10 concentration −8.0 Molar
  Percent Growth: 91%
NCI-H226; Homo sapiens, NCI-H226
  GI50: 3.98 µM
NCI-H226; Homo sapiens, NCI-H226, read-out: LC50 (the source's name)
  CC50: > 100 µM
NCI-H226; NCI-H226
  TGI: >1.00E−04 Molar
NCI-H226; NCI-H226, Log10 concentration −4.0 Molar
  Percent Growth: 34%
NCI-H226; NCI-H226, Log10 concentration −5.0 Molar
  Percent Growth: 35%
NCI-H226; NCI-H226, Log10 concentration −6.0 Molar
  Percent Growth: 73%
NCI-H226; NCI-H226, Log10 concentration −7.0 Molar
  Percent Growth: 79%
NCI-H226; NCI-H226, Log10 concentration −8.0 Molar
  Percent Growth: 83%
COLO 205; COLO 205
  TGI: >1.00E−04 Molar
COLO 205; COLO 205, Log10 concentration −4.0 Molar
  Percent Growth: 43%
COLO 205; COLO 205, Log10 concentration −5.0 Molar
  Percent Growth: 46%
COLO 205; COLO 205, Log10 concentration −6.0 Molar
  Percent Growth: 68%
COLO 205; COLO 205, Log10 concentration −7.0 Molar
  Percent Growth: 87%
COLO 205; COLO 205, Log10 concentration −8.0 Molar
  Percent Growth: 93%
COLO 205; Homo sapiens, COLO 205
  GI50: 6.64 µM
COLO 205; Homo sapiens, COLO 205, read-out: LC50 (the source's name)
  CC50: > 100 µM
HT29 [2]; HT29
  TGI: >1.00E−04 Molar
HT29 [2]; HT29, Log10 concentration −4.0 Molar
  Percent Growth: 20%
HT29 [2]; HT29, Log10 concentration −5.0 Molar
  Percent Growth: 22%
HT29 [2]; HT29, Log10 concentration −6.0 Molar
  Percent Growth: 70%
HT29 [2]; HT29, Log10 concentration −7.0 Molar
  Percent Growth: 93%
HT29 [2]; HT29, Log10 concentration −8.0 Molar
  Percent Growth: 91%
HT29 [2]; Homo sapiens, HT-29
  GI50: 2.63 µM
HT29 [2]; Homo sapiens, HT-29, HT29, read-out: LC50 (the source's name)
  CC50: > 100 µM
SW-620; Homo sapiens, SW-620
  GI50: > 100 µM
SW-620; Homo sapiens, SW-620, read-out: LC50 (the source's name)
  CC50: > 100 µM
SW-620; SW-620
  TGI: >1.00E−04 Molar
SW-620; SW-620, Log10 concentration −4.0 Molar
  Percent Growth: 56%
SW-620; SW-620, Log10 concentration −5.0 Molar
  Percent Growth: 57%
SW-620; SW-620, Log10 concentration −6.0 Molar
  Percent Growth: 87%
SW-620; SW-620, Log10 concentration −7.0 Molar
  Percent Growth: 99%
SW-620; SW-620, Log10 concentration −8.0 Molar
  Percent Growth: 102%
SF-539; Homo sapiens, SF-539
  GI50: 3.87 µM
SF-539; Homo sapiens, SF-539, read-out: LC50 (the source's name)
  CC50: > 100 µM
SF-539; SF-539
  TGI: >1.00E−04 Molar
SF-539; SF-539, Log10 concentration −4.0 Molar
  Percent Growth: 20%
SF-539; SF-539, Log10 concentration −5.0 Molar
  Percent Growth: 33%
SF-539; SF-539, Log10 concentration −6.0 Molar
  Percent Growth: 75%
SF-539; SF-539, Log10 concentration −7.0 Molar
  Percent Growth: 92%
SF-539; SF-539, Log10 concentration −8.0 Molar
  Percent Growth: 93%
SNB-19; Homo sapiens, SNB-19
  GI50: 8.22 µM
SNB-19; Homo sapiens, SNB-19, read-out: LC50 (the source's name)
  CC50: > 100 µM
SNB-19; SNB-19
  TGI: >1.00E−04 Molar
SNB-19; SNB-19, Log10 concentration −4.0 Molar
  Percent Growth: 37%
SNB-19; SNB-19, Log10 concentration −5.0 Molar
  Percent Growth: 47%
SNB-19; SNB-19, Log10 concentration −6.0 Molar
  Percent Growth: 86%
SNB-19; SNB-19, Log10 concentration −7.0 Molar
  Percent Growth: 90%
SNB-19; SNB-19, Log10 concentration −8.0 Molar
  Percent Growth: 95%
U251; Homo sapiens, U-251
  GI50: 5.1 µM
U251; Homo sapiens, U-251, U251, read-out: LC50 (the source's name)
  CC50: > 100 µM
U251; U251
  TGI: >1.00E−04 Molar
U251; U251, Log10 concentration −4.0 Molar
  Percent Growth: 37%
U251; U251, Log10 concentration −5.0 Molar
  Percent Growth: 37%
U251; U251, Log10 concentration −6.0 Molar
  Percent Growth: 81%
U251; U251, Log10 concentration −7.0 Molar
  Percent Growth: 103%
U251; U251, Log10 concentration −8.0 Molar
  Percent Growth: 94%
SN12C
  TGI: >1.00E−04 Molar
SN12C; Homo sapiens
  GI50: 6.32 µM
SN12C; [3]
  CC50: > 100 µM
SN12C; Log10 concentration −4.0 Molar
  Percent Growth: 45%
SN12C; Log10 concentration −5.0 Molar
  Percent Growth: 41%
SN12C; Log10 concentration −6.0 Molar
  Percent Growth: 87%
SN12C; Log10 concentration −7.0 Molar
  Percent Growth: 90%
SN12C; Log10 concentration −8.0 Molar
  Percent Growth: 100%
NCI/ADR-RES
  TGI: >1.00E−04 Molar
NCI/ADR-RES; Homo sapiens
  GI50: 62.4 µM
NCI/ADR-RES; [3]
  CC50: > 100 µM
NCI/ADR-RES; Log10 concentration −4.0 Molar
  Percent Growth: 47%
NCI/ADR-RES; Log10 concentration −5.0 Molar
  Percent Growth: 61%
NCI/ADR-RES; Log10 concentration −6.0 Molar
  Percent Growth: 104%
NCI/ADR-RES; Log10 concentration −7.0 Molar
  Percent Growth: 117%
NCI/ADR-RES; Log10 concentration −8.0 Molar
  Percent Growth: 124%
MDA-N
  TGI: >1.00E−04 Molar
MDA-N; [3]
  CC50: > 100 µM
MDA-N; Log10 concentration −4.0 Molar
  Percent Growth: 51%
MDA-N; Log10 concentration −5.0 Molar
  Percent Growth: 39%
MDA-N; Log10 concentration −6.0 Molar
  Percent Growth: 83%
MDA-N; Log10 concentration −7.0 Molar
  Percent Growth: 93%
MDA-N; Log10 concentration −8.0 Molar
  Percent Growth: 101%
OVCAR-3; Homo sapiens, OVCAR-3
  GI50: 10.2 µM
OVCAR-3; Homo sapiens, OVCAR-3, read-out: LC50
  CC50: > 100 µM
OVCAR-3; OVCAR-3
  TGI: >1.00E−04 Molar
OVCAR-3; OVCAR-3, Log10 concentration −4.0 Molar
  Percent Growth: 43%
OVCAR-3; OVCAR-3, Log10 concentration −5.0 Molar
  Percent Growth: 50%
OVCAR-3; OVCAR-3, Log10 concentration −6.0 Molar
  Percent Growth: 89%
OVCAR-3; OVCAR-3, Log10 concentration −7.0 Molar
  Percent Growth: 105%
OVCAR-3; OVCAR-3, Log10 concentration −8.0 Molar
  Percent Growth: 95%
